Assay in all cases: NCI anticancer screen, dose series, 48 h
The subject of experiment [1] is ACHN.
The subject of experiment [2] is BT-549.
In experiment [3] the test system is CCRF-CEM.
Experiment [4] relates to EKVX.
Experiment [5] concerns HCC 2998.
For experiment [6], the system named is IGROV-1.
Experiment [7] relates to K562.
Experiment [8] deals with KM12.
The test system of experiment [9] is LOX IMVI.
The subject of experiment [10] is Malme-3M.
Experiment [11] has as its system NCI-H522.
In experiment [12] the test system is NCI/ADR-RES.
Experiment [13] has as its system OVCAR-5.
Experiment [14] has as its system PC-3.
Experiment [15] relates to SF-268.
Experiment [16] concerns SF-539.
The test system of experiment [17] is SNB-19.
The test system of experiment [18] is TK-10.
The test system of experiment [19] is HL-60.

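In this assay, cells in 96-well plates receive the compound at five concentrations for 48 hours. Endpoints are linearly interpolated between the surrounding concentrations. At the GI50, growth is halved.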 Activity calls are given as the source filed them. Rule as the data show it: active = GI50 up to about 1.1 µM and inactive = higher.

Take `COC(=O)C1=CSC2(S1)C(C(=O)OC)=CSc1c2ss/c1=N\c1ccccc1` (centres undefined): the GI50 is 2.56 µM (inactive) in experiment [1]; 2.74 µM (inactive) in experiment [2]; 1.6 µM (inactive) in [3]; 4.59 µM (inactive) in experiment [4]; 1.72 µM (inactive) in experiment [5]; 2.47 µM (inactive) in experiment [6]. Further, the GI50 in experiment [7] is 2.7 µM (inactive); in [8], 2.68 µM (inactive); in experiment [9], 1.67 µM (inactive); in experiment [10], 0.813 µM (active); in [11] it was 1.25 µM (inactive); in experiment [12], 1.69 µM (inactive). In addition, the GI50 in experiment [13] is 3.66 µM (inactive); in [14], 5.08 µM (inactive); in [15], 3.02 µM (inactive); in experiment [16], 1.38 µM (inactive); in experiment [17] it was 2.47 µM (inactive); in [18], 2.7 µM (inactive).
For the compound `Cc1cc(C)c(C)c(-n2[nH]c(=O)n(C)c2=O)c1C`, the GI50 in experiment [1], in experiment [2], in experiment [3], in experiment [4], in [19] and in experiment [6] was > 100 µM (inactive) in each case. Further, the GI50 in [7] was > 100 µM (inactive); in [8], > 100 µM (inactive); in experiment [9] it was 99.3 µM (inactive); in experiment [12] it was > 100 µM (inactive); in [13], > 100 µM (inactive); in [14] it was > 100 µM (inactive). Besides, the GI50 in experiment [15], in experiment [16], in experiment [17] and in [18] was > 100 µM (inactive) throughout.
Regarding `O=C(O)CN1CCNCCNCC1`, the GI50 is > 100 µM (inactive) in experiment [1]; > 100 µM (inactive) in experiment [2]; > 100 µM (inactive) in experiment [3]; > 100 µM (inactive) in [4]; 0.9 µM (active) in [19]; > 100 µM (inactive) in [6]. The GI50 in experiment [7] was > 100 µM (inactive); in experiment [8], 59.6 µM (inactive); in experiment [9], > 100 µM (inactive); in experiment [12], > 100 µM (inactive); in experiment [13], > 100 µM (inactive); in experiment [14] it was > 100 µM (inactive). In addition, the GI50 in experiment [16], in experiment [17] and in [18] was > 100 µM (inactive) throughout.
As for `O=C(CCC1CCCCC1)NCc1ccc(C(=O)O)cc1`, the GI50 in [1] was > 100 µM (inactive); in [2] it was > 100 µM (inactive); in experiment [3], 47.1 µM (inactive); in experiment [4], 56.9 µM (inactive); in experiment [5] it was > 100 µM (inactive); in experiment [6], > 100 µM (inactive). Moreover, the GI50 in [7], in experiment [8], in [9], in experiment [10], in [11] and in experiment [12] was > 100 µM (inactive) each time. For the same compound, the GI50 in experiment [13], in experiment [14], in experiment [15], in experiment [16], in experiment [17] and in experiment [18] was > 100 µM (inactive) in each case.
For the compound `CC(C)CCNC(=O)c1ccc(CNC(=O)/C=C/c2cccc(Oc3ccccc3)c2)cc1`, the GI50 is 48.4 µM (inactive) in [1]; 60.1 µM (inactive) in [2]; 23.1 µM (inactive) in experiment [4]; 26.9 µM (inactive) in experiment [5]; 67.5 µM (inactive) in experiment [6]; > 100 µM (inactive) in experiment [7]. Besides, the GI50 was 44 µM (inactive) in experiment [8]; 37.2 µM (inactive) in experiment [9]; > 100 µM (inactive) in experiment [10]; 52.5 µM (inactive) in experiment [11]; 37.2 µM (inactive) in experiment [12]; > 100 µM (inactive) in [13]. Also, the GI50 in experiment [14] is 46.2 µM (inactive); in experiment [15], 37.3 µM (inactive); in experiment [16], 11.6 µM (inactive); in experiment [17] it was 24.5 µM (inactive); in experiment [18], 22.6 µM (inactive).
